For one assay, the system named is skin of hairless mice. As to the kind of experiment: NO release from skin organ culture after tape stripping. The arrangement: species or system mouse. Conditions: pre-incubation with inhibitor 100 μM; skin organ culture in PBS, 30 min at 37° C. The source says: Four male hairless mice (7-10 wk old) were killed by cervical dislocation under anesthesia and skin samples were taken immediately from both flanks. Subcutaneous fat was removed with a scalpel and the skin samples that contained epidermis and dermis, were cut into squares (1.5×1.5 cm^2). […] of skin from the two flanks of each animal were placed, epidermis side upwards, in separate 35-mm culture dishes kept in an ice/water bath, and one of them was tape-stripped four times. The other piece of skin was not treated. One milliliter of phosphate-buffered saline (PBS) was added to both dishes, which were incubated for 30 min at 37° C. After the incubation, 50 μL aliquots of the PBS were removed. NO released into the PBS was quantified using a total nitric oxide assay kit (Immuno-Biological Laboratories Co., Ltd, Gunma, Japan), according to the manufacturer's instruction.

In assay [1] the test system is hairless mice. Kind of assay: Skin barrier recovery (TEWL) after tape stripping with topical application. It counts as in vivo, mouse. How it is done:
Permeability barrier function was evaluated by measurement of transepidermal water loss (TEWL) with an electric water analyzer, as described previously(Denda et al, 1998). For barrier recovery experiments, the flank skin on both sides was subjected to repeated tape stripping until the TEWL reached 7-10 mg per cm^2 per h, as described previously(Denda et al, 1998). As for nNOS-deficient mice and wild-type, the TEWL of the ears was measured over the same sites at 1, 3 and 6 hours after tape stripping. This is because the hair shaving may induce barrier disruption. Therefore, the ears that are hairless parts were selected for TEWL measurements. […] […] The areas were covered with plastic membranes for 15 min and then the membranes were removed. Two points on one flank were measured and 4-8 mice were used to evaluate the effect of each treatment. We always disrupted the barrier between 7:00 AM and 8:00 AM and carried out the measurements of the barrier repair thereafter to avoid the influence of circadian rhythm on the repair rate(Denda and Tsuchiya, 2000). TEWL was measured over the same sites at 1, 3 and 6 hours after barrier disruption. The barrier recovery results are expressed as percent recovery, because of variations from day to day in the extent of barrier disruption. In each animal, the percentage recovery was calculated according to the following formula:

The subject of assay [2] is hairless mice. As to the kind of experiment: Epidermal hyperplasia induced by barrier disruption (acetone) under low humidity. Conditions: for epidermal proliferation (number of BrdU-positive cells, DNA synthesis) / epidermal thickness: topical application after acetone treatment under low humidity, compared with acetone treated skin; for epidermal hyperplasia induced by acetone treatment under low environmental humidity: topical application, 1 µM, 48 hours in dry condition. It counts as in vivo, mouse. The protocol: Hairless mice were kept separately in 7.2-liter cages in which the relative humidity was maintained at less than 10% with dry air as described previously(Denda et al, 1998). The temperature was the same in all cases (22-25° C.), and fresh air was circulated 100 times per hour. Animals were kept out of the direct stream of air. During the experiments, the animal's behavior was not restricted. The level of NH3 was always below 1 ppm. Animals were first kept in a dry condition for 48 hours and then the skin on both flanks was treated with acetone-soaked cotton balls, as described previously(Denda et al, 1998). The procedure was terminated when TEWL reached 2.5-3.5 mg per cm^2 per h. Immediately after the barrier disruption, 100 μl of nNOS inhibitor and ODQ aqueous solution (1 μM) was applied on one side of the treated area. Water was applied on the other side. Then the animals were again kept in the dry condition for 48 hours. After the experiments, animals were euthanized with diethylether inhalation and skin samples were taken from the treated areas. One hour before euthanization, 20 μl per g body weight of a 10 mM solution of bromodeoxyuridine (BrdU) was injected intraperitoneally. Untreated control mice were also treated with BrdU at the same time. After fixation with 4% paraformaldehyde, full thickness skin samples were embedded in paraffin, sectioned (4 μm), and processed for hematoxylin and eosin staining. On each section, five areas were selected at random; the thickness of the epidermis was measured with an optical micrometer, and the mean value was calculated. For the assessment of DNA synthesis, the sections were immunostained with anti-BrdU antibodies. On each section, five areas were selected at random from one section; the number of immunostained cells per 1 mm of epidermis was counted and the epidermal thickness was measured with an optical micrometer. The mean value was calculated. Measurements were carried out in an observer-blinded fashion. NO evaluation in hairless mouse epidermis

The subject of assay [3] is Normal human epithelial keratinocytes (NHEK). As to the kind of experiment: Ca2+ imaging (fura-2) in single cultured keratinocytes. The class given is cell-based. How it is done: Normal human epithelial keratinocytes (NHEK) were purchased from Kurabo (Osaka, Japan). NHEK were cultured in serum-free keratinocyte growth medium, consisting of Humedia-KB2 (Kurabo, Osaka, Japan) supplemented with bovine pituitary extract (0.4% vol/vol), human recombinant epidermal growth (0.1 μg per mL), insulin (10 μg per mL), and hydrocortisol (0.5 μg per mL). The medium was replaced every 2-3 d. For the electrophysiological experiments, NHEK (passage 1-3 cells) were seeded onto collagen-coated glass coverslips and used within 4 d. Ca^2+ imaging in single keratinocytes
NHEK were grown to approximately 80-100% confluency on collagen-coated cover glass chambers (Nalge Nunc, Naperville, Ill.). Changes in [Ca^2+] in single cells were measured by the fura-2 method as described by Grynkiewicz et al. (1985) with minor modifications(Koizumi et al, 1998). In brief, the culture medium was replaced with a balanced salt solution (BSS) of the following composition (mM): NaCl 150, KCl 5, CaCl21.8, MgCl2 1.2, HEPES 25, NaH2PO4 1.2 and D-glucose 10 (pH 7.4) or calcium-free BSS which had the same composition as the above BSS with 1 mM EGTA and no added CaCl2. Cells were loaded with 5 μM fura-2 acetoxymethylester (fura-2AM, Molecular Probes, Eugene, Oreg.) at room temperature (21-23° C.) in BSS for 45 min, washed with BSS, and incubated for a further 30 min to allow de-esterification of the loaded dye. The cover slip was mounted on an inverted epifluorescence microscope (IX70, TS Olympus, Tokyo, Japan), equipped with a 75 W xenon lamp and band-pass filters of 340 and 380 nm. The image data, recorded by a high-sensivity CCD (charge-coupled-device) camera (ORCA-ER, Hamamatsu Photonics, Hamamatsu, Japan) were evaluated with a Ca^2+ analyzing system (AQUACOSMOS/RATIO, Hamamatsu Photonics). SNAP (300 μM), ODQ (10 μM) and nifedipine (50 μM) were dissolved in the BSS and the cells were exposed to the solution by perfusion. We observed four lots of pooled cells for each treatment. […] Data were represented as the ratio of fluorescence intensities at 340 and 380 nm.

Where [4] appears, read: topical application of 1 μM aqueous solution, 1, 3 and 6 hours after tape stripping, vs water control.

Structures are written as SMILES.

Take `CSC(=N)N` [iNOS inhibitor, S-methylisothiourea]: in the assay on skin of hairless mice, the “increase of NO level (release) after tape stripping” value is recorded as “did not affect”. Moreover, the “barrier recovery after tape stripping (percent recovery of TEWL)” value with hairless mice [1] (setting [4]) was “did not affect the barrier recovery”.
As to `O=c1onc2cnc3ccccc3n12` [ODQ, 1H-[1,2,4]oxadiazolo[4,3-a]quinoxalin-1-one], in the assay with hairless mice [2], the “epidermal proliferation (number of BrdU-positive cells, DNA synthesis)” value is listed as “Significant reductions”; the epidermal thickness result was “Significant reductions”; the “epidermal hyperplasia induced by acetone treatment under low environmental humidity” value is on record as “prevented the hyperplasia”. The “effect on increase of intracellular calcium induced by SNAP” value in assay [3] (300 μM SNAP with 10 μM ODQ or 50 μM nifedipine) is recorded as “blocked”. For the same compound, the “barrier recovery after tape stripping (percent recovery of TEWL)” value in the assay on hairless mice [1] (setting [4]) was “accelerated the barrier recovery”.
Consider `O=c1onc2n1-c1cc(Br)ccc1OC2` [NS 2028, 4H-8-bromo-1,2,4-oxadiazolo[3,4-dibenz[b][1,4]oxazin-1-one], for which the “barrier recovery after tape stripping (percent recovery of TEWL)” value with hairless mice [1] (setting [4]) is reported as “accelerated the barrier recovery”.
Still for that read-out and setting: next, `COC(=O)[C@@H](N)CCCNC(=N)N[N+](=O)[O-]` [L-NAMA, L-N(G)-nitro-L-arginine methyl ester]: “accelerated the barrier repair”; `Nc1c[n+](N2CCOCC2)no1.[Cl-]` [SIN, SIN-1 chloride]: “delayed the barrier recovery”.
For `CCCNC(=N)NCCC[C@H](N)C(=O)O` [nNOS inhibitor, N^ω-propyl-L-arginine], in the assay on hairless mice [2], the “epidermal proliferation (number of BrdU-positive cells, DNA synthesis)” value is “Significant reductions”; the epidermal thickness entry is recorded as “Significant reductions”; the “epidermal hyperplasia induced by acetone treatment under low environmental humidity” value is recorded as “prevented the epidermal hyperplasia”. In addition, the “increase of NO level (release) after tape stripping” value with skin of hairless mice was “blocked”. The “barrier recovery after tape stripping (percent recovery of TEWL)” value with hairless mice [1] (setting [4]) is “accelerated the barrier repair”.
For the compound `CC(=O)NC(C(=O)O)C(C)(C)SN=O` (racemic) [SNAP, S-nitroso-N-acetyl-D,L-penicillamine], the “intracellular calcium concentration (ratio 340 nm/380 nm, fura-2)” value in assay [3] (300 μM SNAP, calcium-containing BSS) was “increased”; in assay [3] (SNAP, calcium-free medium) it was “an increase of [Ca^2+] was induced”. Besides, the “barrier recovery after tape stripping (percent recovery of TEWL)” value in the assay on hairless mice [1] (topical application of one millimolar solution of SNAP, vs control) is reported as “delayed skin barrier recovery”.
